Measurements as given in PMC3038380 (Bioorganic & Medicinal Chemistry, 2010).

Experiments:
[1] = NMR chemical shift titration with DPC-d38; assay type: binding; conditions: pH 5.0, 1.0 mM octanoic acid or 1.14 mM ghrelin
[2] = free C8 fatty acid; cited from earlier work

For `CCCCCCCC(=O)O` [octanoic acid], the “unitary Gibbs free energy ΔGu0 of binding to DPC micelles” value [1] is given as -8.6 kcal/mol and the “free energy for the transfer from aqueous into a hydrophobic environment” value [2] is given as -1.5 kcal/mol.
